This note sets out measurements from US20040235834A1, “Thiazoles useful as inhibitors of protein kinases” (priority 2003, published 2004).

The target in assay [1] is SYK (Homo sapiens, UniProt P43405). Description: SYK inhibition assay (standard coupled enzyme assay). The format is biochemical. The settings on record: 200 μM ATP, 4 μM poly Gly-Tyr peptide, 30° C. How it is done:
Compounds were screened for their ability to inhibit SYK using a standard coupled enzyme assay (Fox et al., Protein Sci. 1998, 7, 2249). Reactions were carried out in 100 mM HEPES (pH 7.5), 10 mM MgCl2, 25 mM NaCl, 1 mM DTT and 1.5% DMSO. Final substrate concentrations in the assay were 200 μM ATP (Sigma chemical Co.) and 4 μM poly Gly—Tyr peptide (Sigma Chemical Co.). Assays were carried out at 30° C. and 200 nM SYK. Final concentrations of the components of the coupled enzyme system were 2.5 mM phosphoenolpyruvate, 300 μM NADH, 30 μg/ml pyruvate kinase and 10 μg/ml lactate dehydrogenase.
An assay stock buffer solution was prepared containing all of the reagents listed above, with the exception of SYK, DTT, and the test compound of interest of the present invention. 56 μl of the test reaction was placed in a 96 well plate followed by the addition of 1 μl of 2 mM DMSO stock containing the test compound of the present invnetion (final compound concentration 30 μM). The plate was pre-incubated for ˜10 minutes at 30° C. and the reaction initiated by the addition of 10 μl of enzyme (final concentration 25 nM).

In assay [2] the target is T1, ZAP-70 (Homo sapiens, UniProt P43403).
T1 sequence (P43403 1-619): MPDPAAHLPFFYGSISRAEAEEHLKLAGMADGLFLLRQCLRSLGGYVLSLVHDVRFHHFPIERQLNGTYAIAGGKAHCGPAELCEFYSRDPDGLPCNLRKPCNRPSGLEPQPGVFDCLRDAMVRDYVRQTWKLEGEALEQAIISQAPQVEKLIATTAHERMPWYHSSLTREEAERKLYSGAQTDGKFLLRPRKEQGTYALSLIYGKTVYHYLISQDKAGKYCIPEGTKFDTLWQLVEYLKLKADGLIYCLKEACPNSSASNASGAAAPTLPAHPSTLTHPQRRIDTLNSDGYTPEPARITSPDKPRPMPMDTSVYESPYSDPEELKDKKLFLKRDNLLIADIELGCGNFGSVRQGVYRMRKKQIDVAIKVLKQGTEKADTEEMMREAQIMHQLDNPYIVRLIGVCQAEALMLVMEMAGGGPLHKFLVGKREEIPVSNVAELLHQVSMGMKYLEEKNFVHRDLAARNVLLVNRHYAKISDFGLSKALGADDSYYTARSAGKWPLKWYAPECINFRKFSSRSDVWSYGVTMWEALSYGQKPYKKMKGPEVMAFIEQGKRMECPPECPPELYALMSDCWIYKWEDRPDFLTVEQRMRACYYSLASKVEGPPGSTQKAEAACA
Briefly: ZAP-70 inhibition assay (standard coupled enzyme assay). The format is biochemical. The note with it: 100 μM ATP, 20 μM poly-4EY peptide, 30° C., 60 nM ZAP-70. The method, then: Compounds were screened for their ability to inhibit ZAP-70 using a standard coupled enzyme assay (Fox et al., Protein Sci. 1998, 7, 2249). Assays were carried out in a mixture of 100 mM HEPES (pH 7.5), 10 mM MgCl2, 25 mM NaCl, 2 mM DTT and 3% DMSO. Final substrate concentrations in the assay were 100 μM ATP (Sigma Chemicals) and 20 μM peptide (poly-4EY, Sigma Chemicals). Assays were carried out at 30° C. and 60 nM ZAP-70. Final concentrations of the components of the coupled enzyme system were 2.5 mM phosphoenolpyruvate, 300 μM NADH, 30 μg/ml pyruvate kinase and 10 μg/ml lactate dehydrogenase.
An assay stock buffer solution was prepared containing all of the reagents listed above, with the exception of ZAP-70 and the test compound of interest of the present invention. 55 μl of the stock solution was placed in a 96 well plate followed by addition of 2 μl of DMSO stock containing serial dilutions of the test compound of the present invention (typically starting from a final concentration of 15 μM). The plate was preincubated for 10 minutes at 30° C. and the reaction initiated by addition of 10 μl of enzyme (final concentration 60 nM). Initial reaction rates were determined with a Molecular Devices SpectraMax Plus plate reader over a 15 minute time course. Ki data was calculated from non-linear regression analysis using the Prism software package (GraphPad Prism version 3.Oa for Macintosh, GraphPad Software, San Diego Calif., USA).

For `Oc1cc(Nc2nccc(-c3cscn3)n2)cc(C(F)(F)F)c1` [Compound I-6], the Ki in assay [1] and in assay [2] was no more than 5 µM each time.
Turning to `Cc1cc(C)cc(Nc2nccc(-c3csc(CO)n3)n2)c1` [Compound I-4], the Ki in assay [1] and in assay [2] was no more than 5 µM in each case.
As to `Cc1cc(Nc2nccc(-c3cscn3)n2)cc(C(F)(F)F)c1` [Compound I-5], the Ki in assay [1] and in assay [2] was no more than 5 µM each time.
`COc1cc(Nc2nccc(-c3cscn3)n2)cc(C(F)(F)F)c1` [Compound I-2]: the Ki in assay [1] and in assay [2] was no more than 5 µM each time.
As to `CC(=O)c1nc(-c2ccnc(Nc3cc(C)cc(C)c3)n2)cs1` [Compound I-3], the Ki in assay [1] and in assay [2] was no more than 5 µM throughout.
With `Cc1cc(C)cc(Nc2nccc(-c3cscn3)n2)c1` [Compound I-1], the Ki in assay [1] and in assay [2] was no more than 5 µM throughout.
